In PMC10793205, “Differential transmetallation of complexes of the anti-cancer thiosemicarbazone, Dp4e4mT: effects on anti-proliferative efficacy, redox activity, oxy-myoglobin and oxy-hemoglobin oxidation” (Chemical Science, 2023):
Read-outs that look alike come from different tables or passages of the source.

How the values were obtained:
[1] = target: T1, oxy-Hb in intact human erythrocytes (Homo sapiens, UniProt P68871+P69905); assay: Oxidation of oxy-Hb in intact human erythrocytes; assay type: cell-based; details: 10 μM, 3 h/37 °C; for oxy-Hb oxidation to met-Hb in erythrocytes: control 0.5%
T1 construct: Physiologically, oxy-Hb is found in erythrocytes; endogenous in cells; host or cells: intact human erythrocytes from fresh blood of healthy donors
Description: Fig. 7 (A and B) Investigation of the effects of Dp4e4mT and its Fe(III), Co(III), Ni(II), Cu(II), Zn(II), Ga(III), and Pd(II) complexes versus DFO, Dp44mT, DpC and their Fe(III) complexes (10 μM) on met-Hb generation (% zero time) after an incubation of 1–3 h/20 °C with purified oxy-Hb (40 μM). (C) Investigation of the effects of Dp4e4mT and its Fe(III), Co(III), Ni(II), Cu(II), Zn(II), Ga(III), or Pd(II) complexes relative to the positive controls DFO, Dp44mT, DpC, and their Fe(III) complexes (10 μM) on oxy-Hb oxidation in intact human erythrocytes after a 3 h/37 °C incubation. Results are mean ± SD (3 experiments).
Physiologically, oxy-Hb is found in erythrocytes, and in the current investigation, the ligands and complexes (10 μM) were incubated with intact human erythrocytes for 3 h/37 °C to assess their effects on oxy-Hb oxidation (Fig. 7C). As expected from our previous studies,[28,39] […]
In experiments examining the activity of the agents, all complexes were dissolved in 1,2-propanediol, then diluted to 10 µM in PBS (pH 7.2). […]
1800; Shimadzu, Kyoto, Japan). Concentrations of met-Mb and met-Hb, as well as reduced-Mb and reduced-Hb, were determined at 409 nm and 435 nm, respectively. Concentrations of oxy-Mb and oxy-Hb were determined at 544 nm and 582 nm, respectively. 17 Oxidation of Oxy-Hb in Human Erythrocytes
Oxidation of oxy-Hb in human erythrocytes was performed by standard methods using fresh blood from healthy donors after collection in Vacutainer® collection tubes (BD, Plymouth, UK).8 Erythrocytes centrifuged (480 xg/5 min/4°C) and then washed in HBSS, and subsequently resuspended in this buffer. Incubation of the erythrocytes (15% hematocrit) in the absence or presence of the agents (10 μM) was performed for 3 h/37°C. The erythrocytes were […]

[2] = mice, cited from earlier work
H2DCF = assay: Redox activity: H2DCF oxidation to DCF (cell-free, L-cysteine/H2O2); assay type: biochemical; details: for DCF fluorescence (H2DCF oxidation) of agent alone: 10 μM, pH 7.4 and pH 5, no added CuCl2; for DCF fluorescence (H2DCF oxidation) after addition of CuCl2: 10 μM complex + CuCl2, pH 7.4 and pH 5
Description: Redox activity in cells was examined using an established in vitro method examining 2′,7′-dichlorodihydrofluorescein (H2DCF) oxidation to fluorescent 2′,7′-dichlorofluorescein (DCF) at cytosolic pH (pH 7.4 using HBSS buffer) relative to lysosomal pH (pH 5; acetate buffer; Fig. 5).[25,26,28,42,46] To these buffers containing the complexes, L-cysteine (100 μM) was added as a reducing agent, followed by H2DCF (5 μM). Then, hydrogen peroxide (H2O2; 100 μM) was added to initiate hydroxyl radical generation. Both [Cu(DpC)Cl2] and [Cu(DpC)2] were used as positive controls due to their documented redox activity.[28,42] In contrast, the ligand, DpC, was implemented as a negative control, as it is redox inert.[28,42] As an additional control, the established Cu chelator, tetrathiomolybdate (TM), was utilized to remove Cu from the thiosemicarbazone complexes to indicate its role in their redox activity.[27,28,42] Additionally, UV-vis spectroscopy (300–700 nm) of the same solution for each complex was also performed to understand both the oxidation of H2DCF and the formation of fluorescent DCF upon excitation at 503 nm (Fig. S20A–F and S21A–F ^†). […]
ROS Generation Analysis with H 2DCF-DA
The generation of reactive oxygen species (ROS) was assessed by examining the oxidation of H2DCF.2, 8, 13, 14 Solutions containing CuCl2, TM, DpC, Dp4e4mT, [Fe(DpC)2]+, [Cu(DpC)Cl2], [Cu(DpC)2] and the Dp4e4mT complexes were prepared at a concentration of 10 µM in either HBSS (pH 7.4) or 150 mM acetate buffer (pH 5) to simulate the conditions of the cytosol and lysosome, respectively.2, 8, 14, 15 The H2DCF was prepared by deacetylation of DCFH-DA (Sigma-Aldrich) through alkaline hydrolysis using NaOH. 16
In these prepared solutions, L-cysteine (100 µM) was added as a reducing agent and then H2DCF (5 µM) added. The initiation of hydroxyl radical generation was achieved by the addition of hydrogen peroxide (H2O2; 100 µM). As a comparative benchmark, HBSS or acetate buffer containing L-cysteine, H2DCF, and H2O2, but lacking ligands or metal complexes, was employed as a control. Fluorescence measurements were carried out using a CLARIOstar Plus microplate reader (BMG LABTECH, Australia) with an excitation wavelength of 485 nm and an emission wavelength of 530 nm. 8, 14

[3] = Transmetallation kinetics with Cu(OAc)2 in aqueous solution pH 7.4 / pH 5 (UV-vis); assay type: physicochemical; details: for Observed pseudo first order rate constant kobs, Cu(OAc)2 in water pH 5 (only or first step): 10-fold excess of Cu(OAc)2, water pH 5, 25 °C; for Observed pseudo first order rate constant kobs, Cu(OAc)2 in water pH 7.4: 10-fold excess of Cu(OAc)2, water pH 7.4, 25 °C
Description: Transmetallation studies were also conducted using UV-vis spectroscopy in aqueous solutions at pH 7.4 (phosphate buffer; 100 mM) and pH 5 (acetate buffer; 150 mM) to simulate physiological conditions, as thiosemicarbazones of this class transverse the cytosol (pH 7.4) to target lysosomes (pH 5), where transmetallation occurs.[25,26,28] Studies in aqueous solution were important to compare the results performed in DMSO above so as to interpret the biological studies and particularly the redox assays below where the same pH values were employed.
Transmetallation of the complexes of Dp4e4mT with Cu(OAc)2 in water was possible as it is soluble in aqueous solution at pH 7.4 and 5, while FeCl3 precipitates under these conditions and cannot be assessed. […] The UV-vis spectra of all complexes in water (ca. 10 μM solutions) are compared in Fig. S17 ^† and mirror the spectra in DMSO (see Experimental section). The spectra of [Fe(Dp4e4mT)2]^+, [Co(Dp4e4mT)2]^+, and [Pd(Dp4e4mT)Cl] are similar, and display an asymmetric maximum around 393 nm with a prominent shoulder (∼450 nm). The [Ni(Dp4e4mT)2] spectrum is similarly asymmetric, although the peak intensities are reversed relative to the Fe(III), Co(III), and Pd(II) spectra (Fig. S17 ^†). […] The spectrum of [Zn(Dp4e4mT)2] is unique in this group, with a symmetrical peak at ∼400 nm.
Table S2. Observed pseudo first order rate constants (k obs, s−1) for reactions of each Dp4e4mT complex with a 10-fold excess of Cu(OAc) 2 or FeCl 3 in DMSO or water (pH 7.4 or 5.0) at 25 °C. […]
[Co(Dp4e4mT)2]+ No reaction No reaction No reaction No reaction […]
a Reaction could not be deciphered by UV-Vis spectroscopy; bchlorido ligand hydrolysis

T1 sequence (P69905 2-142 limits assumed): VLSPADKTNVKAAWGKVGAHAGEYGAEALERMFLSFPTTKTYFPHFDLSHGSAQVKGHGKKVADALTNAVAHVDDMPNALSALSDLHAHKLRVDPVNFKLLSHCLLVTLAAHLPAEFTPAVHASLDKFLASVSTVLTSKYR
T1 sequence (P68871 2-147 limits assumed): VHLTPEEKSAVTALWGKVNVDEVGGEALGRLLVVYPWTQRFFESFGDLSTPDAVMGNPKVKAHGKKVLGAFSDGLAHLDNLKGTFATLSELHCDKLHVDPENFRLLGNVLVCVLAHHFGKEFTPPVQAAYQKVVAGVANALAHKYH

oxy-Hb oxidation to met-Hb in erythrocytes [1]	oxy-Hb oxidation in erythrocytes versus the control (in words) [1]	Compound	DCF fluorescence (H2DCF oxidation) of agent alone (H2DCF)	Observed pseudo first order rate constant kobs, Cu(OAc)2 in water pH 5 (only or first step) [3]	Observed pseudo first order rate constant kobs, Cu(OAc)2 in water pH 7.4 [3]	DCF fluorescence (H2DCF oxidation) after addition of CuCl2 (H2DCF)	also measured
1.9 % of the total	–	CCN(C)C(=S)NN=C(c1ccccn1)c1ccccn1 [Dp4e4mT, di-2-pyridylketone-4-ethyl-4-methyl-3-thiosemicarbazone]	did not significantly (p > 0.05) increase DCF fluorescence	–	–	–	cardiac fibrosis [2]: did not induce cardiac fibrosis in mice
2.3 % of the total	–	CN(C)C(=S)NN=C(c1ccccn1)c1ccccn1 [Dp44mT, di-2-pyridylketone 4,4-dimethyl-3-thiosemicarbazone, reference compound]	–	–	–	–	cardiac fibrosis ([2]; intravenous, intensive non-optimal doses): demonstrated cardiac fibrosis
–	negligible effects on oxy-Hb oxidation	CCN(C)C([S-])=NN=C(c1ccccn1)c1ccccn1.CCN(C)C([S-])=NN=C(c1ccccn1)c1ccccn1.[Co+3] [[Co(Dp4e4mT)2]^+]	–	No reaction	No reaction	not significantly (p > 0.05) different to CuCl2 alone	oxy-Hb oxidation in erythrocytes versus the control (in words) ([1]; listed as Dp4e4mT Co(III) complex): no (p > 0.05) significant effect on oxy-Hb oxidation
–	negligible effects on oxy-Hb oxidation	CCN(C)C([S-])=NN=C(c1ccccn1)c1ccccn1.[Cl-].[Cu+2] [[Cu(Dp4e4mT)Cl]]	greatest efficacy at increasing DCF fluorescence	–	–	–	–
4.8 % of the total	–	CCN(C)C([S-])=NN=C(c1ccccn1)c1ccccn1.CCN(C)C([S-])=NN=C(c1ccccn1)c1ccccn1.[Fe+3] [[Fe(Dp4e4mT)2]^+]	markedly and significantly (p < 0.0001) less redox active	–	–	markedly and significantly (p < 0.0001–0.001) increased DCF fluorescence	kobs, decay of the 500 nm shoulder after Cu(OAc)2 ([3]; aqueous, pH 7.4 and 5.0): 0.00073 s⁻¹; t½, decay of the 500 nm shoulder after Cu(OAc)2 ([3]; aqueous, pH 7.4 and 5.0): ~15 min
1.3 % of the total	slight effect	CCN(C)C([S-])=NN=C(c1ccccn1)c1ccccn1.CCN(C)C([S-])=NN=C(c1ccccn1)c1ccccn1.[Ga+3] [[Ga(Dp4e4mT)2]^+]	–	> 0.1 s−1	> 0.1 s−1	markedly and significantly (p < 0.0001–0.001) increased DCF fluorescence	t½, spectral change without added Cu(OAc)2 ([3]; aqueous pH 7.4, no Cu(OAc)2): ~0.5 min; kobs, spectral change without added Cu(OAc)2 ([3]; aqueous pH 7.4, no Cu(OAc)2, λmax shift ∼415 nm to 400 nm): 0.022 s⁻¹
–	negligible effects on oxy-Hb oxidation	CCN(C)C([S-])=NN=C(c1ccccn1)c1ccccn1.CCN(C)C([S-])=NN=C(c1ccccn1)c1ccccn1.[Ni+2] [[Ni(Dp4e4mT)2]]	–	–	No reaction	markedly and significantly (p < 0.0001–0.001) increased DCF fluorescence	oxy-Hb oxidation in erythrocytes versus the control (in words) ([1]; listed as Dp4e4mT Ni(II) complex): no (p > 0.05) significant effect on oxy-Hb oxidation; t½, faster step with Cu(OAc)2 at pH 5 ([3]; aqueous pH 5, first of two consecutive first order reactions): ~4 min
–	negligible effects on oxy-Hb oxidation	CCN(C)C([S-])=NN=C(c1ccccn1)c1ccccn1.[Cl-].[Pd+2] [[Pd(Dp4e4mT)Cl]]	–	–	–	approximately half	oxy-Hb oxidation in erythrocytes versus the control (in words) ([1]; listed as Dp4e4mT Pd(II) complex): no (p > 0.05) significant effect on oxy-Hb oxidation
–	negligible effects on oxy-Hb oxidation	CCN(C)C([S-])=NN=C(c1ccccn1)c1ccccn1.CCN(C)C([S-])=NN=C(c1ccccn1)c1ccccn1.[Zn+2] [[Zn(Dp4e4mT)2]]	–	> 0.1 s−1	> 0.1 s−1	markedly and significantly (p < 0.0001–0.001) increased DCF fluorescence	oxy-Hb oxidation in erythrocytes versus the control (in words) ([1]; listed as Dp4e4mT Zn(II) complex): no (p > 0.05) significant effect on oxy-Hb oxidation

Compound	oxy-Hb oxidation to met-Hb in erythrocytes [1]	oxy-Hb oxidation in erythrocytes versus the control (in words) [1]	DCF fluorescence (H2DCF oxidation) of agent alone (H2DCF)	Observed pseudo first order rate constant kobs, Cu(OAc)2 in water pH 5 (only or first step) [3]	Observed pseudo first order rate constant kobs, Cu(OAc)2 in water pH 7.4 [3]	DCF fluorescence (H2DCF oxidation) after addition of CuCl2 (H2DCF)	also measured
CN(C(=S)NN=C(c1ccccn1)c1ccccn1)C1CCCCC1 [DpC, di-2-pyridylketone 4-cyclohexyl-4-methyl-3-thiosemicarbazone, reference compound]	–	did not induce any significant (p > 0.05) increase in oxy-Hb oxidation	did not significantly (p > 0.05) increase DCF fluorescence	–	–	–	cardiac fibrosis [2]: did not induce cardiac fibrosis in mice
